Laboratory results reported in patent publication US11800868B2, “Isoflavonoid compounds and use thereof” (Novozymes BioAg A/S, priority 2004, dated 2023).

Key:
potato = assay: Growth promotion of potato tubers with signals, field; assay type: in vivo
Experimental: Notes: • 1. Microtubers (cv. Bintje, tuber size from 0.5-0.7 g) were soaked in each test solution overnight at 25° C. in the incubator. Treatment rate was 50 ml/treatment, and 50 ml water as control. • 2. […] Treated potato tubers were planted in soil 10-15 cm deep, 10 tubers in 10 M^2 plot and supplied 500 ml of water to each tuber in ground after planting. • 4. Planted date: Aug. 20, 2004 and harvested date: Oct. 15, 2004.

tomato = assay: Signal applied to tomato seedling roots transplanted into soil inoculated with soybean rhizobia (field)

O=c1c(-c2ccc(O)cc2)coc2cc(O)cc(O)c12 [genistein]
tuber size (potato; 300-500 μM): larger tuber size
potato tuber yield increase over control (potato; microtubers soaked in 300 μM solution overnight): up to 17.7%
Fruit/plot (tomato; 100 ml at 1 μM/plant, Early): 67.75
Fruit/plot % vs ctrl (tomato; 100 ml at 1 μM/plant, Early): 16.81%
Kg/plot (tomato; 100 ml at 1 μM/plant, Early): 12.02 Kg/plot
Kg/plot % vs ctrl (tomato; 100 ml at 1 μM/plant, Early): 15.47%
Fruit/plot (tomato; 100 ml at 1 μM/plant, Normal): 241.5
Fruit/plot % vs ctrl (tomato; 100 ml at 1 μM/plant, Normal): 10.27%
Kg/plot (tomato; 100 ml at 1 μM/plant, Normal): 27.10 Kg/plot
Kg/plot % vs ctrl (tomato; 100 ml at 1 μM/plant, Normal): 5.86%
Fruit/plot (tomato; 100 ml at 10 μM/plant, Early): 66.25
Fruit/plot % vs ctrl (tomato; 100 ml at 10 μM/plant, Early): 14.22%
Kg/plot (tomato; 100 ml at 10 μM/plant, Early): 11.64 Kg/plot
Kg/plot % vs ctrl (tomato; 100 ml at 10 μM/plant, Early): 11.82%
Fruit/plot (tomato; 100 ml at 10 μM/plant, Normal): 217.75
Fruit/plot % vs ctrl (tomato; 100 ml at 10 μM/plant, Normal): −0.57%
Kg/plot (tomato; 100 ml at 10 μM/plant, Normal): 25.91 Kg/plot
Kg/plot % vs ctrl (tomato; 100 ml at 10 μM/plant, Normal): 1.21%
Fruit/plot (tomato; 100 ml at 50 μM/plant, Early): 71
Fruit/plot % vs ctrl (tomato; 100 ml at 50 μM/plant, Early): 22.41%
Kg/plot (tomato; 100 ml at 50 μM/plant, Early): 12.85 Kg/plot
Kg/plot % vs ctrl (tomato; 100 ml at 50 μM/plant, Early): 23.44%
Fruit/plot (tomato; 100 ml at 50 μM/plant, Normal): 198.5
Fruit/plot % vs ctrl (tomato; 100 ml at 50 μM/plant, Normal): −9.36%
Kg/plot (tomato; 100 ml at 50 μM/plant, Normal): 25.77 Kg/plot
Kg/plot % vs ctrl (tomato; 100 ml at 50 μM/plant, Normal): 0.66%
